PubChem BioAssay AID743133 (The Scripps Research Institute Molecular Screening Center, 2013)

Biological target: Acyl-protein thioesterase 1 (Homo sapiens) + Acyl-protein thioesterase 2 (Homo sapiens) (UniProt O75608+O95372)
Test: reversibility of LYPLA1/LYPLA2 inhibition after gel filtration, late-stage follow-up, mechanism study for LYPLA1/LYPLA2 inhibitor project, cell lysate, HeLa lysate, fluorescence gel ABPP (AID 743133)
Settings: HeLa lysate gel-based ABPP, FP-Rh; for recovery after gel filtration: stronger effect = lower value; for inhibition: stronger effect = higher value

Acyl-protein thioesterase 1 (Homo sapiens) + Acyl-protein thioesterase 2 (Homo sapiens), sequence (O75608 whole entry, looked up, one chain of several): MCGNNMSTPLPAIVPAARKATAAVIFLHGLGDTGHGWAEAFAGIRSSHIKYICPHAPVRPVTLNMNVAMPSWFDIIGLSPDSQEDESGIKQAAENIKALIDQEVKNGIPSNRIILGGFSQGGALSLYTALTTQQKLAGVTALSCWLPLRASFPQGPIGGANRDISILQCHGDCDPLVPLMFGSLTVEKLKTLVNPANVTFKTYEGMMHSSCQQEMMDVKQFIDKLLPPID

Q: With `O=C(ON1C(=O)C2CN(C(=O)N3CCOCC3)CCN2C1=O)N1CCC(CCc2ccc(Cl)cc2)CC1` (stereo unspecified) as the compound, how does the recovery after gel filtration (at 0.2 µM) read?
A: Its recovery after gel filtration is 0%.

Q: What about the inhibition (at 0.2 µM, post-gel filtration inhibition) of the same compound?
A: Its inhibition is 85%.

Q: And the inhibition (at 0.2 µM, pre-gel filtration inhibition)?
A: Its inhibition is 85%.

Q: What about the recovery after gel filtration (at 1 µM) of the same compound?
A: The recovery after gel filtration was 0%.

Q: And the inhibition (at 1 µM, post-gel filtration inhibition)?
A: Its inhibition is 95%.

Q: What about the inhibition (at 1 µM, pre-gel filtration inhibition) of the same compound?
A: The inhibition was 95%.
